ChEMBL document CHEMBL1129178, “Thiol inhibitors of endothelin-converting enzyme” (Bioorg Med Chem Lett, 1996)

Legend:
[1] = molecular target: T1, Endothelin-converting enzyme 1 (Rattus norvegicus, UniProt P42893); experiment: In vitro inhibition of Endothelin-converting enzyme 1 from rat lungs.
T1 sequence (P42893 whole entry): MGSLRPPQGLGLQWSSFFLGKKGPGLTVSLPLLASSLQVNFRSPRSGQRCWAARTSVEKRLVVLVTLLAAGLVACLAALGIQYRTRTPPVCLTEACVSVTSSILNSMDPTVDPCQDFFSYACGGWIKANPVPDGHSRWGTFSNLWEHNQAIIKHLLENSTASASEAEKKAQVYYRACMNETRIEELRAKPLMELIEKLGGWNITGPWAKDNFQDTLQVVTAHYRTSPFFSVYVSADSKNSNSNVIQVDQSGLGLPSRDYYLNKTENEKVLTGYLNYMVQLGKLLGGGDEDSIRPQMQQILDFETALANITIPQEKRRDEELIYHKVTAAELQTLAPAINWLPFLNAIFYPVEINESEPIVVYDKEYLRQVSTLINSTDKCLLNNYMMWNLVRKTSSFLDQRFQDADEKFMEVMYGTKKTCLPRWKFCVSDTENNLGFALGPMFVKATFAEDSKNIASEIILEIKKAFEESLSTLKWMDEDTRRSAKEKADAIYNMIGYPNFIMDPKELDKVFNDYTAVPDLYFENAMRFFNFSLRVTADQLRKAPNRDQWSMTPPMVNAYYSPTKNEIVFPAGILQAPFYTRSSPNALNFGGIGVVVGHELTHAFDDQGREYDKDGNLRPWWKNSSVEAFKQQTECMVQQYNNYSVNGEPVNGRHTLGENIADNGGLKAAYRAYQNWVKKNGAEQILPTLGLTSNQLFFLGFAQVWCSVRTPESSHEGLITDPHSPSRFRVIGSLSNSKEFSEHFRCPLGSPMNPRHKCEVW

[2] = molecular target: T2, Endothelin-converting enzyme 1 (Rattus norvegicus) (UniProt P42893); experiment: In vitro inhibition of cleavage of [3H]propionyl-big ET-1(19-35) by Endothelin-converting enzyme 1 from rat lungs at 10000 nM
T2 sequence (whole entry): T1 sequence (P42893 whole entry)

| Compound | IC50 [1] | inhibition [2] |
| --- | --- | --- |
| COC(=O)[C@H](Cc1c[nH]c2ccccc12)NC(=O)[C@@H](CS)Cc1ccccc1 | 1800 nM | – |
| O=C(N[C@@H](Cc1c[nH]c2ccccc12)C(=O)O)C(CS)Cc1ccc(OCc2ccccc2)cc1 (stereo partly specified) | 800 nM | – |
| O=C(N[C@@H](Cc1c[nH]c2ccccc12)C(=O)O)C(CS)Cc1ccccc1 (stereo partly specified) | 340 nM | – |
| COC(=O)[C@H](Cc1c[nH]c2ccccc12)NC(=O)[C@H](S)Cc1ccccc1 | 2200 nM | – |
| COc1ccc(-c2ccc(C[C@H](NC(=O)[C@@H](CS)Cc3ccccc3)C(=O)O)cc2)cc1 | 800 nM | – |
| O=C(N[C@@H](Cc1ccc(OCc2ccccc2)cc1)C(=O)O)[C@@H](CS)Cc1ccccc1 | 700 nM | – |
| COC(=O)[C@H](Cc1c[nH]c2ccccc12)NC(=O)[C@H](CS)Cc1ccccc1 | 3500 nM | – |
| O=C(N[C@@H](Cc1c[nH]c2ccccc12)C(=O)O)[C@H](S)Cc1ccccc1 | 400 nM | – |
| O=C(N[C@@H](Cc1c[nH]c2ccccc12)C(=O)O)C(CS)Cc1cc2c(cc1Cl)OCO2 (stereo partly specified) | 400 nM | – |
| O=C(N[C@@H](Cc1ccc(O)cc1)C(=O)O)[C@@H](CS)Cc1ccccc1 | 2800 nM | – |
| O=C(N[C@@H](Cc1ccccc1)C(=O)O)[C@@H](CS)Cc1ccccc1 | 1200 nM | – |
| O=C(N[C@@H](Cc1c[nH]c2ccccc12)C(=O)O)[C@H](CS)Cc1ccccc1 | 500 nM | – |
| O=C(O)[C@H](Cc1c[nH]c2ccccc12)NC(=O)[C@@H](S)Cc1ccccc1 | – | 65% |
| O=C(N[C@@H](Cc1ccc(-c2ccc3ccccc3c2)cc1)C(=O)O)[C@@H](CS)Cc1ccccc1 | 300 nM | – |

Continued, values first:

| IC50 [1] | inhibition [2] | Compound |
| --- | --- | --- |
| 150 nM | – | O=C(N[C@@H](Cc1ccc(-c2ccccc2)cc1)C(=O)O)[C@@H](CS)Cc1ccccc1 |
| 25 nM | – | O=C(N[C@@H](Cc1c[nH]c2ccccc12)C(=O)O)C(CS)Cc1ccc(Br)cc1 (stereo partly specified) |
| 40 nM | – | O=C(N[C@@H](Cc1c[nH]c2ccccc12)C(=O)O)C(CS)Cc1cccc(-c2ccccc2)c1 (stereo partly specified) |
| 40 nM | – | O=C(N[C@@H](Cc1c[nH]c2ccccc12)C(=O)O)C(CS)Cc1ccc(-c2ccccc2)cc1 (stereo partly specified) |
| 80 nM | – | O=C(N[C@@H](Cc1ccc(-c2cccs2)cc1)C(=O)O)C(CS)Cc1cccc(Br)c1 (stereo partly specified) |
| 180 nM | – | O=C(N[C@@H](Cc1c[nH]c2ccccc12)C(=O)O)[C@@H](CS)Cc1ccccc1 |
| 55 nM | – | O=C(N[C@@H](Cc1ccc(-c2cccs2)cc1)C(=O)O)[C@@H](CS)Cc1ccccc1 |
